The values that follow are results of earlier work, collected in patent publication US5888536A (Chinoin Ltd., priority 1994, dated 1999).

Consider `C#CCN(C)[C@H](C)Cc1ccccc1` [selegilin, (-)-[N-α-dimethyl-N-(2-propynylphenylethylamine)]], for which the solubility in chloroform (chloroform) is 1 g/5 ml. Besides, the solubility in methanol (methanol) was 1 g/3 ml. The solubility in water (water) is given as 1 g/3 ml.
